What was measured:
DsaD/E system = experiment: Two-step Cα/Cβ deuteration then Cα deuterium washout with DsaD in H2O; assay type: biochemical, Streptomyces scopuliridis; conditions: lower substrate loading (10 mM), after Cα washout
Protocol: (§1) General procedure for milligram-scale biocatalytic deuteration: A 4-dram scintillation vial was charged with amino acid (10-20 mM final concentration), Na3PO4 buffer pD 8.4 (50 mM final concentration), PLP (100 μM final concentration), DsaD clarified cell lysate (2.5% v/v), DsaE clarified cell lysate (if applicable) (2.5% v/v), and D2O (or dH2O) to the appropriate final volume. The reaction vessel was placed in an incubator at 37° C. for 16 h. Reaction progress was monitored by UPLC-MS. After reaction completion, the reaction mixture was quenched with an equivalent volume of acetone and centrifuged (4,000 rpm, 10 min) to remove denatured protein. Supernatant was transferred to a clean beaker, the decanted supernatant was concentrated to remove acetone by rotary evaporation and loaded onto a preparative reverse-phase C18 column pre-equilibrated with water. Purification was performed via gradient elution on an Isolera One Flash Purification system (Biotage). Fractions bearing product (confirmed by UPLC-MS sampling of fraction tubes) were pooled and dried by rotary evaporation. The product was then resuspended in a minimal quantity of water, transferred to a pre-weighed 20 mL vial, frozen, and lyophilized.
An initial reaction was performed with DsaD and DsaE to produce Cα,Cβ-deuterated L-Leu-2,3,3-d3 (25). Following reaction quenching with acetone, centrifugation to remove protein products, and removal of acetone and D2O via rotary evaporation, the dry crude product mixture was subjected to standard reaction conditions with DsaD in water. This reaction led to washout of the Cα deuterium, providing exclusively Cβ-deuterated L-Leu-3,3-d2 (44) with high levels of deuterium incorporation at Cβ (FIG. 5, 86% D incorporation and 98% ee). The site of H/D exchange in these reactions is dictated by the presence or absence of DsaE from the reaction conditions, enabling control of amino acid deuteration patterns.
We performed Cα/Cβ deuteration on a panel of amino acids, quenched the reactions and resubjected the crude product to Cα deuterium washout with DsaD in H2O. […]

DsaD/E complex [1] = experiment: Analytical-scale Cα/Cβ H/D exchange with purified DsaD and DsaE; assay type: biochemical, Streptomyces scopuliridis; conditions: 10 mM substrate, 5 μM DsaD, 50 μM DsaE (10:1), 37° C., 8 h
Protocol: FIGS. 3A-3C. Optimization of H/D exchange reactions and evaluation of the substrate scope. FIG. 3A. Optimization of Cβ-deuteration by increasing equivalents of partner protein DsaE. FIG. 3B. Evaluation of substrate scope of dual-protein-catalyzed Cα/Cβ deuteration under optimized conditions. FIG. 3C. UV-visible spectroscopy used to evaluate non-native substrate binding to DsaD. Reaction conditions: 10 mM amino acid substrate, 50 μM DsaE, 5 μM DsaD (10:1), 50 mM sodium phosphate (pD 8.4), 0.1 mM PLP, D2O, 37° C., 8 h. Reactions performed in duplicate, and percentage isotope incorporation is reported as the average of the replicates.
General procedure analytical scale deuteration reactions: α/β deuteration reactions were performed as follows. A 1 mL Eppendorf tube was charged with amino acid (10-20 mM final concentration), Na3PO4 buffer pD 8.4 (50 mM final concentration), PLP (100 μM final concentration), purified enzymes or appropriate lysate and D2O and to the appropriate final volume (typically 50 μL). Reactions were carried out at 37° C. for 8 h and quenched by the addition of 3 volumes of acetonitrile. Precipitated biomolecules were pelleted by centrifugation (16,000×g, 10 min) and samples were processed as described below.
(§2) Marfey's derivatization of analytical scale reactions: Derivatization of the resulting analytical scale product mixture (to increase overall signal and enable reverse phase chromatographic analysis) was achieved by treatment with Marfey's reagent^2 (1-fluoro-2-4-dinitrophenyl-5-L-alanine amide, L-FDAA) using the following protocol. 25 μL of quenched reaction mix (final amine concentration, 1.6 mM) was added to an Eppendorf tube with 50 μL of 15 mM NaHCO3 (final concentration, 5 mM) and 75 μL of 5 mM L-FDAA (final concentration, 2.5 mM). Derivatization reactions were carried out for 10-12 h before quenching with 150 μL of 60 mM HCl dissolved in acetonitrile. Final reaction analysis was carried out by UPLC-DAD-MS and quantitation as described below.
(§3) Quantitation of deuteration in analytical scale reactions: Deuteration reactions were analyzed by UPLC-DAD-MS with single ion recording (SIR) channels set to record a spectrum with the appropriate isotopic mass in positive mode. The area under the curve of recorded SIR peaks was obtained and normalized to account for natural isotopic abundance distributions (e.g. ^13C, ^15N, ^2H, ^34S, etc). Percent deuterium incorporation was calculated by the formula below. These measurements were carried out in an iterative fashion to measure Cα deuteration and Cβ deuteration.

DsaD/E complex [2] = experiment: Preparative-scale Cα/Cβ-deuteration with DsaD and DsaE clarified lysates in D2O; assay type: biochemical, Streptomyces scopuliridis
Protocol: (§4) FIG. 5. ^1H NMR analysis of site-selective deuteration of L-Leu. Reaction conditions: 20 mM L-Leu 2.5% v/v DsaD clarified lysate, 2.5% v/v DsaE clarified lysate (when needed), 50 mM sodium phosphate (pD 8.4), 0.1 mM PLP, D2O (99.9% D).
(§5) FIG. 8. Preparative-scale and site-selective deuteration of amino acids. Conditions: 10-20 mM amino acid, 2.5% v/v DsaD clarified lysate, 2.5% v/v DsaE clarified lysate, 50 mM sodium phosphate (pD 8.4), 0.1 mM PLP, D2O (99.9%).
as §1

DsaD [3] = biological target: T1, DsaD (Streptomyces scopuliridis, UniProt A0A0D5CCB2); experiment: Preparative-scale Cα-deuteration with DsaD clarified lysate in D2O; assay type: biochemical; conditions: DsaD lysate only
Protocol: as §4, §5
as §1, with “Supernatant was transferred to a clean beaker, the decanted supernatant was concentrated to remove acetone by rotary evaporation and loaded onto a preparative reverse-phase C18 column pre-equilibrated with water. Purification was performed via gradient elution on an Isolera One Flash Purification system (Biotage). Fractions bearing product (confirmed by UPLC-MS sampling of fraction tubes) were pooled and dried by rotary evaporation.” left out

DsaD/E complex [4] = experiment: Analytical-scale Cα/Cβ H/D exchange with purified DsaD and DsaE; assay type: biochemical, Streptomyces scopuliridis; conditions: 1 mM Ile, 0.05 mol % DsaD and DsaE (1:1), D2O, 37° C., 8 h
DsaD/DsaE complex = DsaD/DsaE complex (Streptomyces scopuliridis, UniProt A0A0D5CCB2); experiment: Steady-state kinetic analysis of H/D exchange of L-Ile by DsaD with partner protein DsaE; assay type: biochemical
Chain of DsaD/DsaE complex (A0A0D5CBB6 entry or part of it, one chain of several): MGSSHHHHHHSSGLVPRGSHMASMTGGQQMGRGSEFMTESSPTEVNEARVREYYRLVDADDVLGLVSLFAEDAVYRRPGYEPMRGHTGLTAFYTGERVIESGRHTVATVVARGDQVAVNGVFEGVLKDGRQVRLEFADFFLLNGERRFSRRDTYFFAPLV
Protocol: (§6) FIGS. 2A-2E. Steady-state kinetic analysis of H/D exchange by the Ile epimerization system. FIG. 2A. Steady-state kinetic analysis describing Cβ-deuteration^a of L-Ile under varied equivalents of partner enzyme DsaE. FIG. 2B. Steady-state kinetic analysis of Cβ-deuteration rates^a at a constant 1 mM L-Ile, measured against increasing equivalents of DsaE. FIG. 2C. Steady-state kinetic analysis of Cα-deuteration^a of L-Ile in the presence and absence of partner protein DsaE. FIG. 2D. Proposed mechanism of selective deuterium incorporation at Cα and Cβ catalyzed by dual protein catalysis. FIG. 2E. UV-visible spectrum of DsaD in the absence and presence of L-Ile.^a Measurement of initial rates was performed in duplicate at 24° C. Conditions: 0.1-10 mM L-Ile, 3 μM DsaD, 50 mM sodium phosphate (pD 8.4), and 0.1 mM PLP in D2O (99.9%). Proteins were exchanged into a 50 mM sodium phosphate-D2O (pD 8.4) solution prior to reaction initiation to minimize proton contamination (<1% H2O). Following quench with MeCN, crude reaction products were subjected to functionalization with Marfey's reagent (L-FDAA) to enable analysis by reverse-phase chromatography and quantification of isotope incorporation by mass spectrometry.
as §2, §3
Kinetic analysis of biocatalytic L-Ile deuteration: Initial rates of α- or β-deuteration were obtained by means of end-point assay using the quantitation protocol for analytical scale reactions as described above. All reagents were prepared in D2O (99.9% D) and protein stocks were dialyzed (3 exchanges over 3 h at 4° C.) into 50 mM sodium phosphate buffer dissolved in D2O (pD 8.4) using a slide-a-lyzer device with a 3,000 Da cutoff. Reactions were performed at 25° C. in 1 mL Eppendorf tubes. Michaelis constants (KM) for α- and β-deuteration of L-Ile were determined using the concentration range of 0.1-10 mM L-Ile using 3 μM DsaD. Partner protein (DsaE) concentrations were consistent within each experiment and separate experiments were performed using varied equivalents of partner protein (0-50 equiv). Initial velocities were measures in duplicate or triplicate for at least 6 different substrate concentrations for each set of conditions tested. Measurements of the impact of partner protein (DsaE) concentration on the initial rate of β-deuteration were carried out using 1 mM L-Ile, 3 μM DsaD and varying DsaE concentrations between 3 μM-600 μM (1-200 equiv). Under the minimal proton contamination conditions of this assay (99.9% D2O), Cα and Cβ deuteration are assumed to have occurred without back transfer to proton. The data were fit using the Michaelis-Menten equation implemented in Prism.

DsaD [5] = biological target: T1, DsaD; experiment: UV-vis spectroscopy of amino acid binding to DsaD; conditions: 20 μM DsaD, pH 8.0, 25° C.
Protocol: UV-Vis Spectroscopy: Data were collected between 600 and 300 nm on a UV-2600 Shimadzu spectrophotometer (Shimadzu, Kyoto, Japan) with a semi-micro quartz cuvette (Starna Cells, Atascadero, California, USA) at 25° C. DsaD stock solutions were diluted to 20 μM in 50 mM sodium phosphate pH 8.0. For observation of substrate binding, amino acids were added at concentrations ranging from 2.5-10 mM. Spectra from 600-300 nm were collected after a 2-minute incubation period. Amino acid stocks were prepared as 100 mM stocks in deionized water.

DsaD [6] = biological target: T1, DsaD; experiment: H/D exchange of L-Ile with DsaD alone (steady-state kinetics); assay type: biochemical
Protocol: as §6, with “Conditions: 0.1-10 mM L-Ile, 3 μM DsaD, 50 mM sodium phosphate (pD 8.4), and 0.1 mM PLP in D2O (99.9%). Proteins were exchanged into a 50 mM sodium phosphate-D2O (pD 8.4) solution prior to reaction initiation to minimize proton contamination (<1% H2O).” left out
(§7) Kinetic analysis of biocatalytic L-Ile deuteration: Initial rates of α- or β-deuteration were obtained by means of end-point assay using the quantitation protocol for analytical scale reactions as described above. […] Michaelis constants (KM) for α- and β-deuteration of L-Ile were determined using the concentration range of 0.1-10 mM L-Ile using 3 μM DsaD. […]

[7] = substrate: CC[C@H](C)[C@H](N)C(=O)O; experiment: as above; assay type: biochemical, Streptomyces scopuliridis; conditions: other: DsaD alone; pH 8.4
Protocol: as §6, with “Conditions: 0.1-10 mM L-Ile, 3 μM DsaD, 50 mM sodium phosphate (pD 8.4), and 0.1 mM PLP in D2O (99.9%). Proteins were exchanged into a 50 mM sodium phosphate-D2O (pD 8.4) solution prior to reaction initiation to minimize proton contamination (<1% H2O).” left out
as §7

[8] = lower substrate loading (10 mM)

N[C@@H](Cc1ccc(O)cc1)C(=O)O [Tyr, tyrosine]
deuterium incorporation at Cβ (DsaD/E system): 40%
D-incorporation at Cα (DsaD/E complex [1]): 99%
D-incorporation at Cβ (DsaD/E complex [1]): 27%
deuterium incorporation at Cα (DsaD/E complex [2]; [8]): 95%
deuterium incorporation at Cβ (DsaD/E complex [2]; [8]): 49%

[2H][C@](N)(CC(C)C)C(=O)O [L-Leu-2-d]
D incorporation at Cα (DsaD [3]): 95%
ee (DsaD [3]): > 99 % ee

CC[C@H](C)[C@H](N)C(=O)O [Ile, isoleucine]
major product of H/D exchange (DsaD/E complex [4]): 1:1 mixture of d2-2,3-L-Ile and d2-2,3-L-allo-Ile
change of observed kcat or KM for Cα-deuteration (DsaD/DsaE complex; 150 μM DsaE (50:1 DsaE:DsaD)): did not significantly impact
change of kcat of Cβ-deuteration (DsaD/DsaE complex; 5 equiv. of DsaE (5:1 DsaE:DsaD) vs one equivalent): did not significantly change
decrease in observed KM of Cβ-deuteration (DsaD/DsaE complex; 5 equiv. vs one equivalent of DsaE): 11 fold
increase in kcat of Cβ-deuteration (DsaD/DsaE complex; 50 equiv. of DsaE (50:1 DsaE:DsaD)): ~4 fold
kcat of Cβ-deuteration (DsaD/DsaE complex; one equivalent of DsaE, 3 μM DsaD, D2O pD 8.4): 0.07 ± 0.007 s⁻¹
kcat of Cα-deuteration (DsaD/DsaE complex; with DsaE bound): 0.75 ± 0.01 s⁻¹
deuteration at Cα (DsaD/E complex [2]; >600 mg scale): 95%
deuteration at Cβ (DsaD/E complex [2]; >600 mg scale): 93%
substrate binding to DsaD by UV-vis (DsaD [5]): appearance of a new absorbance band at 328 nm
kcat of Cα exchange (DsaD [6]; DsaD alone): 1.04 ± 0.04 s⁻¹
H/D exchange with just DsaD (DsaD [6]; excluding partner protein DsaE): a single H/D exchange event

N[C@@H](Cc1ccccc1)C(=O)O [Phe, phenylalanine]
deuterium incorporation at Cβ (DsaD/E system): 91%
D-incorporation at Cα (DsaD/E complex [1]): high Cα deuteration
D-incorporation at Cβ (DsaD/E complex [1]): 67%

B1: DsaD (Streptomyces scopuliridis) (protein)
chain: MGSSHHHHHHSSGLVPRGSHMASMTGGQQMGRGSEFMHIVTTPVARPLTAQERTERCAAPAFGTAFTEHMVSARWNPEQGWHDAELVPYGPLLLDPATVGLHYGQVVFEGLKAFRSHTGEVAVFRPDAHAERMRASARRLMMPEPPEELFLAAVDALVAQDQEWIPDDPGMSLYLRPILFASERTLALRPAREYRFLLVAFITEGYFGPAQRPVRVWVTDEYSRAAAGGTGAAKCAGNYAGSLLAQEEAQRKGCDQVVWLDPVERNWVEEMGGMNLFFVYEAGGSARLVTPPLTGSLLPGVTRDALLRLAPTLGVPVSEAPLSLEQWRADCASGAITEVFACGTAARISPVNEVSTKDGSWTIGAGAPAEGGVAAGEVTGRLSAALFGIQRGELPDSHSWMRPVSPARQSAIT
Km [7]: 700 ± 100 µM

Reference: US12662688B2, “Site-selective deuteration of amino acids through dual protein catalysis” (Wisconsin Alumni Research Foundation, priority 2022, dated 2026)
